How the values were obtained:
immature female rats [1] = assay: In vivo ovulation model: FSH-pretreated immature rats, oocytes counted in oviduct after 18 hours; set-up: species or system rat
Excerpt: The role of FSH in any ovulation induction regimen is for promoting follicular development and maturation, not ovulation induction.
All injections were subcutaneous. Results are expressed as mean plus or minus standard deviations. […] The effects of Compound 1, a known PDE inhibitor are shown.
Data represent average number of oocytes in oviducts of all rats in each group and frequency of ovulating rats. […] Results are expressed as mean plus or minus standard deviations.
Data represent average number of oocytes in oviducts of all rats in each group and frequency of ovulating rats. Results are expressed as mean plus or minus standard deviations.
Following FSH induced follicular maturation (2.16 IU/rat/injection; bid×2 days) Compound 2 was either injected subcutaneously (subcutis) or administered by oral gavage. Ovulation was determined 18 hours after Compound 2 administration by counting oocytes in oviduct. Data represent average number of oocytes in oviducts of all rats in each group and frequency of ovulating rats. Results are expressed as mean plus or minus standard deviations.
Following FSH induced follicular maturation (2.16 IU/rat/injection; bid×2 days) […] was either injected subcutaneously (subcutis) or administered by oral gavage. Ovulation was determined 18 hours after Compound 2 administration by counting oocytes in oviduct. Data represent average number of oocytes in oviducts of all rats in each group and frequency of ovulating rats. Results are expressed as mean plus or minus standard deviations.

[2] = test system: rat ovarian granulosa cells; assay: Rat ovarian granulosa cell cAMP levels, alone or with gonadotropins in vitro (cAMP specific RIA); assay type: cell-based; conditions: 25 micromolar compound with subeffective (0.1 pM) gonadotropin, 48 hrs
Description: Ovaries were removed from immature 25 day old, hypophysectomized, diethylstilbesterol treated Sprague-Dawley rats. The ovaries were repeatedly punctured with 27 gauge needles to liberate granulosa cells from the follicles. Cells were washed and re-suspended in McCoys 5A media+0.1% BSA+2 μM androstenedione. Viable cells in number of 100,000 were loaded into 6-well tissue culture dishes in a 1.0 ml volume (with Compound 1 and Compound 2 at a concentration of 25 micromolar, either alone or in conjunction with a low, 0.1 pM dose of gonadotropin). Plates were incubated in a 37° C. incubator, 100% humidity, 5.0% CO2 for 48 hrs. Conditioned media were assayed in a cAMP specific RIA. Results are expressed as mean plus or minus standard deviations.

immature female rats [3] = assay: Follicle maturation in vivo: sub-optimal FSH with co-administered PDE inhibitor, ovulatory hCG, oocytes counted in oviduct; set-up: species or system rat
Description: Mature ovarian follicles generated in immature female rats by treatment with a sub-optimal dose of FSH (1.08 IU/rat/injection; bid×3 days) with and without co-administration of Compound 1 (0.1, 1, 10, and 50 mg/kg/injection: bid×3 days). […] The PDE inhibitors were given in conjunction with sub-optimal doses of FSH. All injections were subcutaneously administered. […] Results are expressed as mean plus or minus standard deviations. […] As also noted in FIG. 3, a PDE inhibitor (Compound 1) inhibited (rather than stimulated) both ovulation administered at 50 mg/kg.

immature rats = assay: Ovulation and fertility in FSH/PMSG pretreated immature rats; assay type: in vivo, rat; conditions: single subcutaneous injection
Description: Follicular maturation was induced in immature rats with FSH (4.33 IU/rat/injection; bid×2 days) and Pregnant Mare's Serum Gonadotropin (PMSG) (1.5 IU/rat/injection; bid×2 days). […] FSH and PMSG induced rats were then treated with either Compound 2 (12 rats) or vehicle (12 rats) by subcutaneous administration. In one cohort of rats (6 rats per treatment), ovulation was determined 18 hours after Compound 2 or vehicle administration by counting oocytes in oviduct. To assess fertility, another cohort of rats (6 rats per treatment) were individually placed overnight in a cage together with a single adult male rat of proven fertility. The next day, male rats were removed and the females were caged together by group until the day of parturition. The number of live full-term pups observed at the time of parturition was recorded. […] Results for both ovulation and live pups are expressed as mean plus or minus standard deviations.

[4] = subcutaneous injection alone, without hCG
[5] = single subcutaneous injection co-administered with sub-effective dose of hCG

SMILES | ovulation (oocytes in oviduct) (immature female rats [1]; oral gavage, without hCG) | ovulation (oocytes in oviduct) (immature female rats [1]; [4]) | cAMP levels in conditioned media [2] | ovulation (oocytes in oviduct) (immature female rats [1]; [5]) | ovulation (oocytes in oviduct, frequency of ovulating rats) (immature female rats [3]; 50 mg/kg/injection bid x 3 days s.c. with sub-optimal FSH (1.08 IU), ovulatory hCG 20 IU) | ability of a sub-optimal dose of FSH to prepare follicles to ovulate (immature female rats [3]; increasing doses 0.1, 1, 10, 50 mg/kg/injection bid x 3 days s.c. with sub-optimal FSH) | ovulation (oocytes in oviduct) (immature rats; 18 hours) | number of live full-term pups at the time of parturition (immature rats; mated overnight)
CCOc1cc2cc(CO)c(CO)c(-c3ccnc(-n4nc(-c5cccnc5)c5ccccc5c4=O)c3)c2cc1OCC.Cl [Compound 3, 2-(4-(6,7-Diethoxy-2,3-bis(hydroxymethyl)naphthalen-1-yl)pyridin-2-yl)-4-(3-pyridyl) pthalazin-1 (2H)-one hydrochloride] | induction of ovulation | induction of ovulation | – | – | – | – | – | –
COc1ccc([C@]2(C#N)CC[C@@H](C(=O)O)CC2)cc1OC1CCCC1 [Compound 1, Cis-4-cyano-4-(3-(cyclopentyloxy)-4-methoxyphenyl)cyclohexane-1-carboxylic acid] | – | induction of ovulation | significant increase | induction of ovulation | inhibited | failed to enhance | – | –
Clc1nc2c(N3CCCC3)nc(N3CCNCC3)nc2nc1NCc1ccccc1 [Compound 4, 7-Benzylamino-6-chloro-2-piperazino-4-pyrrolidinopteridine] | – | little or no ovulation | – | induction of ovulation | – | – | – | –
COc1ccc(C(=O)Nc2c(Cl)cncc2Cl)cc1OC1CCCC1 [Compound 2, 3-(Cyclopentyloxy)-N-(3,5-dichloropyridin-4-yl)-4-methoxybenzamide] | induction of ovulation | induction of ovulation | significant increase | – | – | – | induction of ovulation | increased number of live pups
